Measured values reported in US20160235727A1, “NOVEL PYRROLIDINE DERIVED BETA 3 ADRENERGIC RECEPTOR AGONISTS” (Merck Sharp & Dohme Corp., priority 2013, published 2016).

Target: T1, human β3-AR (Homo sapiens, UniProt P13945)
T1 construct: expressed in transfected cells; host or cells: CHO (Chinese hamster ovary) cells, stably transfected
Test: cAMP functional agonist assay (LANCE TR-FRET) in CHO cells expressing cloned human β3-AR
Format: cell-based
Conditions: for EC50: CHO cells stably expressing cloned human β3-adrenoceptor, cAMP release, read-out: Human β3-AR Agonism EC50; for Fold drop in potency vs. 2-chloropyridine analog: EC50 of comparative example divided by EC50 of corresponding 2-chloropyridine compound; for Human β3-AR Agonist Activity (%): percent maximum activation relative to isoproterenol

T1 sequence (P13945 whole entry): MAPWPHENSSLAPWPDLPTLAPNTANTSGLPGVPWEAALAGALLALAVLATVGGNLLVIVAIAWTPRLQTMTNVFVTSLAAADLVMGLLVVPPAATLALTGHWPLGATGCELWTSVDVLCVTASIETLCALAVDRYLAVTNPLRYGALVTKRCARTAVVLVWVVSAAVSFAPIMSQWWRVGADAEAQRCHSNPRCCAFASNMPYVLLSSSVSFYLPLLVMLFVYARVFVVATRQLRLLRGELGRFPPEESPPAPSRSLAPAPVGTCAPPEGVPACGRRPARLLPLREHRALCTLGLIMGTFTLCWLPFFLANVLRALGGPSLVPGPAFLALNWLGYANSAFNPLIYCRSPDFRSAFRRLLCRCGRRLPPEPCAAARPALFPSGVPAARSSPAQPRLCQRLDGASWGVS

Row | EC50 | Fold drop in potency vs. 2-chloropyridine analog | Human β3-AR Agonist Activity (%) | Compound
1 | 175 nM | – | 87% | CN(Cc1ccc(=O)[nH]c1)C(=O)c1ccc(C[C@@H]2CC[C@H]([C@H](O)c3ccc(Cl)nc3)N2)cc1 [Example 28-A, 4-(((2S,5R)-5-((R)-(6-chloropyridin-3-yl)(hydroxy)methyl)pyrrolidin-2-yl)methyl)-N-methyl-N-((6-oxo-1,6-dihydropyridin-3-yl)methyl)benzamide]
2 | 816 nM | 4.7 fold | 78% | CN(Cc1ccc(=O)[nH]c1)C(=O)c1ccc(C[C@@H]2CC[C@H]([C@H](O)c3cccc(F)c3)N2)cc1 [Example 28-C, 4-(((2S,5R)-5-((R)-(3-fluorophenyl)(hydroxy)methyl)pyrrolidin-2-yl)methyl)-N-methyl-N-((6-oxo-1,6-dihydropyridin-3-yl)methyl)benzamide]
3 | 732 nM | 4.2 fold | 88% | CN(Cc1ccc(=O)[nH]c1)C(=O)c1ccc(C[C@@H]2CC[C@H]([C@H](O)c3ccc(F)cc3)N2)cc1 [Example 28-F, 4-(((2S,5R)-5-((R)-(4-fluorophenyl)(hydroxy)methyl)pyrrolidin-2-yl)methyl)-N-methyl-N-((6-oxo-1,6-dihydropyridin-3-yl)methyl)benzamide]
4 | 17 nM | – | 94% | COc1ccc(CN(C)C(=O)c2ccc(C[C@@H]3CC[C@H]([C@H](O)c4ccc(Cl)nc4)N3)cc2)cn1 [Example 29-A, 4-(((2S,5R)-5-((R)-(6-chloropyridin-3-yl)(hydroxy)methyl)pyrrolidin-2-yl)methyl)-N-((6-methoxypyridin-3-yl)methyl)-N-methylbenzamide]
5 | 86 nM | 5.1 fold | 99% | COc1ccc(CN(C)C(=O)c2ccc(C[C@@H]3CC[C@H]([C@H](O)c4ccccc4)N3)cc2)cn1 [Example 29-B, 4-(((2S,5R)-5-((R)-hydroxy(phenyl)methyl)pyrrolidin-2-yl)methyl)-N-((6-methoxypyridin-3-yl)methyl)-N-methylbenzamide]
6 | 3 nM | – | 99% | CN(Cc1ccc(Cl)nc1)C(=O)c1ccc(C[C@@H]2CC[C@H]([C@H](O)c3ccc(Cl)nc3)N2)cc1 [Example 30-A, 4-(((2S,5R)-5-((R)-(6-chloropyridin-3-yl)(hydroxy)methyl)pyrrolidin-2-yl)methyl)-N-((6-chloropyridin-3-yl)methyl)-N-methylbenzamide]
7 | 28 nM | 8.9 fold | 100% | CN(Cc1ccc(Cl)nc1)C(=O)c1ccc(C[C@@H]2CC[C@H]([C@H](O)c3ccccc3)N2)cc1 [Example 30-B, N-((6-chloropyridin-3-yl)methyl)-4-(((2S,5R)-5-((R)-hydroxy(phenyl)methyl)pyrrolidin-2-yl)methyl)-N-methylbenzamide]
8 | 78 nM | 24.4 fold | 101% | CN(Cc1ccc(Cl)nc1)C(=O)c1ccc(C[C@@H]2CC[C@H]([C@H](O)c3ccc(F)cc3)N2)cc1 [Example 30-F, N-((6-chloropyridin-3-yl)methyl)-4-(((2S,5R)-5-((R)-(4-fluorophenyl)(hydroxy)methyl)pyrrolidin-2-yl)methyl)-N-methylbenzamide]
9 | 7 nM | – | 96% | CC(O)c1cncc(CN(C)C(=O)c2ccc(C[C@@H]3CC[C@H]([C@H](O)c4ccc(Cl)nc4)N3)cc2)c1 (stereo partly drawn) [Example 31-A, (((2S,5R)-5-((R)-(6-chloropyridin-3-yl)(hydroxy)methyl)pyrrolidin-2-yl)methyl)-N-((5-(1-hydroxyethyl)pyridin-3-yl)methyl)-N-methylbenzamide]
10 | 16 nM | 2.3 fold | 104% | CC(O)c1cncc(CN(C)C(=O)c2ccc(C[C@@H]3CC[C@H]([C@H](O)c4ccccc4)N3)cc2)c1 (stereo partly drawn) [Example 31-B, 4-(((2S,5R)-5-((R)-hydroxy(phenyl)methyl)pyrrolidin-2-yl)methyl)-N-((5-(1-hydroxyethyl)pyridin-3-yl)methyl)-N-methylbenzamide]
11 | 13 nM | – | 94% | CN(Cc1cncc(C(C)(C)O)c1)C(=O)c1ccc(C[C@@H]2CC[C@H]([C@H](O)c3ccc(Cl)nc3)N2)cc1 [Example 32-A, 4-(((2S,5R)-5-((R)-(6-chloropyridin-3-yl)(hydroxy)methyl)pyrrolidin-2-yl)methyl)-N-((5-(2-hydroxypropan-2-yl)pyridin-3-yl)methyl)-N-methylbenzamide]
12 | 22 nM | 1.8 fold | 109% | CN(Cc1cncc(C(C)(C)O)c1)C(=O)c1ccc(C[C@@H]2CC[C@H]([C@H](O)c3ccccc3)N2)cc1 [Example 32-B, 4-(((2S,5R)-5-((R)-hydroxy(phenyl)methyl)pyrrolidin-2-yl)methyl)-N-((5-(2-hydroxypropan-2-yl)pyridin-3-yl)methyl)-N-methylbenzamide]
13 | 16 nM | 1.2 fold | 98% | CN(Cc1cncc(C(C)(C)O)c1)C(=O)c1ccc(C[C@@H]2CC[C@H]([C@H](O)c3ccc(Cl)cc3)N2)cc1 [Example 32-G, 4-(((2S,5R)-5-((R)-(4-chlorophenyl)(hydroxy)methyl)pyrrolidin-2-yl)methyl)-N-((5-(2-hydroxypropan-2-yl)pyridin-3-yl)methyl)-N-methylbenzamide]
14 | 44 nM | – | 101% | CN(Cc1cncc(C(=O)O)c1)C(=O)c1ccc(C[C@@H]2CC[C@H]([C@H](O)c3ccc(Cl)nc3)N2)cc1 [Example 33-A, 5-((4-(((2S,5R)-5-((R)-(6-chloropyridin-3-yl)(hydroxy)methyl)pyrrolidin-2-yl)methyl)-N-methylbenzamido)methyl)nicotinic acid]
15 | 87 nM | 87.0 fold | 111% | CN(Cc1cncc(C(=O)O)c1)C(=O)c1ccc(C[C@@H]2CC[C@H]([C@H](O)c3ccccc3)N2)cc1 [Example 33-B, 5-((4-(((2S,5R)-5-((R)-hydroxy(phenyl)methyl)pyrrolidin-2-yl)methyl)-N-methylbenzamido)methyl)nicotinic acid]
16 | 63 nM | 1.4 fold | 102% | CN(Cc1cncc(C(=O)O)c1)C(=O)c1ccc(C[C@@H]2CC[C@H]([C@H](O)c3ccc(Cl)cc3)N2)cc1 [Example 33-G, 5-((4-(((2S,5R)-5-((R)-(4-chlorophenyl)(hydroxy)methyl)pyrrolidin-2-yl)methyl)-N-methylbenzamido)methyl)nicotinic acid]
17 | 6 nM | – | 90% | COC(=O)c1cncc(CN(C)C(=O)c2ccc(C[C@@H]3CC[C@H]([C@H](O)c4ccc(Cl)nc4)N3)cc2)c1 [Example 34-A, Methyl 5-((4-(((2S,5R)-5-((R)-(6-chloropyridin-3-yl)(hydroxy)methyl)pyrrolidin-2-yl)methyl)-N-methylbenzamido)methyl)nicotinate]
18 | 14 nM | 2.3 fold | 101% | COC(=O)c1cncc(CN(C)C(=O)c2ccc(C[C@@H]3CC[C@H]([C@H](O)c4ccccc4)N3)cc2)c1 [Example 34-B, Methyl 5-((4-(((2S,5R)-5-((R)-hydroxy(phenyl)methyl)pyrrolidin-2-yl)methyl)-N-methylbenzamido)methyl)nicotinate]
19 | 17 nM | – | 91% | CN(Cc1cncc(C#N)c1)C(=O)c1ccc(C[C@@H]2CC[C@H]([C@H](O)c3ccc(Cl)nc3)N2)cc1 [Example 35-A, 4-(((2S,5R)-5-((R)-(6-chloropyridin-3-yl)(hydroxy)methyl)pyrrolidin-2-yl)methyl)-N-((5-cyanopyridin-3-yl)methyl)-N-methylbenzamide]
20 | 62 nM | 3.6 fold | 102% | CN(Cc1cncc(C#N)c1)C(=O)c1ccc(C[C@@H]2CC[C@H]([C@H](O)c3ccccc3)N2)cc1 [Example 35-B, N-((5-cyanopyridin-3-yl)methyl)-4-(((2S,5R)-5-((R)-hydroxy(phenyl)methyl)pyrrolidin-2-yl)methyl)-N-methylbenzamide]
21 | 14 nM | – | 92% | Cc1nnc(-c2cncc(CN(C)C(=O)c3ccc(C[C@@H]4CC[C@H]([C@H](O)c5ccc(Cl)nc5)N4)cc3)c2)o1 [Example 36-A, 4-(((2S,5R)-5-((R)-(6-chloropyridin-3-yl)(hydroxy)methyl)pyrrolidin-2-yl)methyl)-N-methyl-N-((5-(5-methyl-1,3,4-oxadiazol-2-yl)pyridin-3-yl)methyl)benzamide]

Row | Compound | EC50 | Fold drop in potency vs. 2-chloropyridine analog | Human β3-AR Agonist Activity (%)
22 | O=C(c1ccc(C[C@@H]2CC[C@H]([C@H](O)c3cccnc3)N2)cc1)N(CCO)Cc1cccnc1F [Example 27-H, N-((2-fluoropyridin-3-yl)methyl)-4-(((2S,5R)-5-((R)-hydroxy(pyridin-3-yl)methyl)pyrrolidin-2-yl)methyl)-N-(2-hydroxyethyl)benzamide] | 1390 nM | 288.6 fold | 78%
23 | COC(=O)c1cncc(CN(C)C(=O)c2ccc(C[C@@H]3CC[C@H]([C@H](O)c4ccc(Cl)cc4)N3)cc2)c1 [Example 34-G, Methyl 5-((4-(((2S,5R)-5-((R)-(4-chlorophenyl)(hydroxy)methyl)pyrrolidin-2-yl)methyl)-N-methylbenzamido)methyl)nicotinate] | 18 nM | 2.9 fold | 90%
